{
  "source": "patent US20040126421A1",
  "about": "“Liposomal system and method of using same” (priority 2002, published 2004)",
  "test_system": "CD8+ T cells recognizing the ova peptide (SIINFEKL)",
  "assay": "IFN-g ELISPOT of lymph node CD8+ T cells after vaccination",
  "assay_type": "in vivo, C57BL/6 mice",
  "method": "In order to test the potency of the Ubiquisome vaccine, the liposomes of example 1 were used as a vaccine. For vaccination, mice received a single administration of […] of liposomes containing 2.5 mg POPE and approximately […] peptide antigen. The vaccine was injected bilaterally in mouse tibealis anterior muscle ([…] per muscle).\nFor ELISPOT analysis, mice were sacrificed 5 days following vaccination and inguinal and popliteal lymph nodes were harvested. CD8+ T cells from lymph nodes were isolated using the MACS magnetic cell separation technique. 1×10^5 CD8+ T cells were plated per well in 96 well IP plates. Ova (SIINFEKL, Seq ID No. 3) or irrelevant peptide-pulsed EL4 lymphoma cells were irradiated and plated over CD8+ T cells at density of 10×10^4 cells/well. Following 20 h incubation and assay development, IFN-g secreting cells were visualized as brown spots on the IP membrane.",
  "data": [
    {"substance": "monophosphoryl Lipid A [MPL]", "values": [
      {"measurement": "CD8+ T cell response with increasing amounts of MPL in the bilayer", "result": "proportionally stronger CD8+ T cell responses"}
    ]}
  ]
}
